Article PMC4823704, “Trastuzumab-grafted PAMAM dendrimers for the selective delivery of anticancer drugs to HER2-positive breast cancer” (Scientific Reports, 2016)

Key:
MDA-MB-453 cells = experiment: Annexin V-FITC/PI apoptosis assay; assay type: cell-based, human; conditions: 56 ng/mL, 24 h
Experimental: To evaluate apoptosis and necrosis, we used Annexin V-FITC/PI assays, as per the manufacturer’s protocols. Briefly, MDA-MB-453 cells (1 × 10^6 cells/well) were seeded in six-well plates and maintained at 37 °C in 5% CO2 and a 95% humidified atmosphere. The medium was replaced with freshly prepared medium containing drug-loaded formulations. Untreated cells were used as controls. After 24 h, cells were washed twice with PBS and resuspended in 500 μL of binding buffer. We added 5 μL of FITC-conjugated Annexin V and 10 μL of PI, and incubated cells for 15 min at room temperature in the dark. Cells were then analyzed by a Muse™ Cell Analyzer (Merck-Millipore, Germany) and the extent of apoptosis and necrosis was determined.

[1] = system: MDA-MB-231 cells (HER2-negative); experiment: Anti-proliferation assay (MTT); assay type: cell-based, human
Experimental: (§1) Cells were grown in DMEM medium supplemented with 10% fetal bovine serum, 100 U/mL penicillin, […] streptomycin and 2 mM/L L-glutamine. Cells were maintained at 37 °C in 5% CO2.
(§2) Cells were seeded in 96-well plates at a density of 5 × 10^3 cells per well in 100 μL of medium. […] Media were then replaced with serum-free DMEM containing MTT (0.5 mg/mL), then cells were incubated for 4 h. Media were removed and 150 μL of DMSO was added to dissolve formazan crystals. Absorbance was measured at 570 nm using a microplate reader. Untreated cells were used as a negative control (100% viability). IC50 was calculated by fitting the curve of cell viability against the drug concentration.

[2] = system: MDA-MB-453 cells (HER2-positive); experiment: Anti-proliferation assay (MTT); assay type: cell-based; conditions: Homo sapiens
Experimental: as §1, §2

[3] = patients, p = 0.03; cited from earlier work

IC50 ([1]; Homo sapiens, MDA-MB-231, 48 h of incubation): > 0.25 µg/mL
IC50 ([2]; MDA-MB-453, 48 h of incubation): > 0.25 µg/mL
SMILES: CC(=O)O[C@@]12CO[C@@H]1C[C@H](O)[C@@]1(C)C(=O)[C@H](O)C3=C(C)[C@@H](OC(=O)[C@H](O)[C@@H](NC(=O)OC(C)(C)C)c4ccccc4)C[C@@](O)([C@@H](OC(=O)c4ccccc4)[C@H]21)C3(C)C [DTX, docetaxel]
live cells (MDA-MB-453 cells): 83.1%
total percentage of apoptotic cells (MDA-MB-453 cells): 16.5%
cell viability ([1]; 48 h, MDA-MB-231): 61.9%
viability at 0.125 µg/mL ([2]; 125 ng/mL drug concentration, 48 h, MDA-MB-453, read-out: cell viability): 69%
survival [3]: 22.7 months
